Test results reported in patent US10993933B2, “Oral dosage forms of bendamustine” (ASTELLAS DEUTSCHLAND GMBH, priority 2010, dated 2021).
Marks after values point to notes of the source that are not given here.

Tests used:
[1] = Phase 1 crossover study, urine pharmacokinetics (Example 8); type: in vivo, human; details: for percentage of the dose excreted in urine as metabolite: oral administration
From the text: Urine pharmacokinetic parameters of bendamustine, M3 and M4 are presented in Table 27, Table 28 and Table 29, respectively. The percentage of the dose excreted in urine unchanged was low (2.6% and 2.1% for oral and intravenous bendamustine, respectively).

[2] = Phase 1 crossover study, plasma pharmacokinetics after oral and i.v. bendamustine (Example 8); details: for AUCinf after oral administration as % of AUCinf after intravenous administration: 90% CI M3: 76%, 98%, M4: 77%, 102%
Experimental: An open label, randomized two-way crossover study to assess the absolute bioavailability of oral bendamustine in patients with cancer was conducted to assess the absolute bioavailability of bendamustine administered as an oral formulation (example 2). Besides assessing the pharmacokinetics of bendamustine in plasma following oral and i.v. administration, a further objective was to evaluate the safety and tolerability of bendamustine following i.v. and especially oral administration of the formulation of example 2.
14 patients who were suffering from multiple myeloma, B-cell type chronic lymphocytic leukemia or advanced indolent non-Hodgkin's lymphoma were enrolled and were treated with bendamustine. […] After signing the informed consent form and following the screening period (days −21 to −2), eligible patients were assigned a patient number which was specific for each study site. Patients were randomized to receive one of the following on day 1 followed by the other on day 8: • a single oral dose of 110.2 mg (2×55.1 mg) bendamustine HCl • a single intravenous dose of 100 mg bendamustine HCl
Bendamustine was provided a) orally as capsules, a LFHC formulation (liquid-filled, hard-shell capsule) and b) intravenously as a solution after reconstituting a powder for the preparation of a solution for injection. The LFHC formulation (per capsule) was prepared from 55.1 mg bendamustine hydrochloride, 1.2 mg methylparaben, 0.12 mg […], 0.12 mg butylated hydroxytoluene, 10.9 mg ethanol and 532.56 mg CREMOPHOR RH40. The vial with powder for concentrate for solution was the marketed product in Germany (RIBOMUSTINE) which contains per vial 100 mg of bendamustine hydrochloride and mannitol as an excipient. This product was reconstituted with water for injection to a final concentration of 2.5 mg/ml of bendamustine HCl and was further diluted with 0.9% NaCl until about 500 ml before administration to the patient, in accordance with the instructions of the package insert.
Patients were admitted to the study site for 2 periods; days −1 to 2 (period 1) and days 7 to 9 (period 2). A total of 12 patients was to be randomized to receive treatment. Six patients were to receive treatment with a single oral dose of 110.2 mg (2×55.1 mg) bendamustine HCl (day 1) followed by a single intravenous dose of 100 mg bendamustine HCl (day 8) while 6 other patients were to receive treatment in the alternate order. Patients underwent a washout period of at least 7 days between treatments.
After oral and intravenous administration of bendamustine the concentration of bendamustine, as well as that of the active metabolites of bendamustine (M3 and M4), were determined in plasma and urine samples on day 1 and day 8. Patients returned to the study site for an end-of-study visit 7 to 14 days after completion of the second treatment period, or after early discharge/withdrawal. Subsequently the pharmacokinetic parameters of bendamustine and its metabolites were calculated.

[3] = Stability of an aqueous solution of bendamustine as a function of pH; details: pH values higher than about 5
[4] = Phase 1 crossover study, safety and tolerability (Example 8); type: in vivo, human
[5] = M3 in urine, Bendamustine HCl 100 mg intravenously, mean, n=11
[6] = M3 in urine, Bendamustine HCl 100 mg intravenously, median, n=11
[7] = M3 in urine, Bendamustine HCl 100 mg intravenously, min-max, n=11
[8] = M3 in urine, Bendamustine HCl 110.2 mg orally, mean, n=10
[9] = M3 in urine, Bendamustine HCl 110.2 mg orally, median, n=10
[10] = M3 in urine, Bendamustine HCl 110.2 mg orally, min-max, n=10
[11] = M3 in plasma, Bendamustine HCl 100 mg intravenously, mean, n=11
[12] = M3 in plasma, Bendamustine HCl 110.2 mg orally, mean, n=11
[13] = M4 in urine, Bendamustine HCl 100 mg intravenously, mean, n=11
[14] = M4 in urine, Bendamustine HCl 100 mg intravenously, median, n=11
[15] = M4 in urine, Bendamustine HCl 100 mg intravenously, min-max, n=11
[16] = M4 in urine, Bendamustine HCl 110.2 mg orally, mean, n=10
[17] = M4 in urine, Bendamustine HCl 110.2 mg orally, median, n=10
[18] = M4 in urine, Bendamustine HCl 110.2 mg orally, min-max, n=10
[19] = M4 in plasma, Bendamustine HCl 100 mg intravenously, mean, n=11
[20] = M4 in plasma, Bendamustine HCl 110.2 mg orally, mean, n=11
[21] = bendamustine in urine, Bendamustine HCl 100 mg intravenously, mean, n=11
[22] = bendamustine in urine, Bendamustine HCl 100 mg intravenously, median, n=11
[23] = bendamustine in urine, Bendamustine HCl 100 mg intravenously, min-max, n=11
[24] = bendamustine in urine, Bendamustine HCl 110.2 mg orally, mean, n=11
[25] = bendamustine in urine, Bendamustine HCl 110.2 mg orally, median, n=11
[26] = bendamustine in urine, Bendamustine HCl 110.2 mg orally, min-max, n=11

Cn1c(C(O)CCC(=O)O)nc2cc(N(CCCl)CCCl)ccc21 (stereo not drawn) [Batch M3, γ-hydroxybendamustine]
% Aeinf [1, 5]: 0.459% | % Aelast [1, 5]: 0.457% | Aeinf [1, 5]: 0.435 mg | Aelast [1, 5]: 0.433 mg | CLR [1, 5]: 1.29 L/h | % Aeinf [1, 6]: 0.354% | % Aelast [1, 6]: 0.353% | Aeinf [1, 6]: 0.336 mg | Aelast [1, 6]: 0.334 mg | CLR [1, 6]: 0.856 L/h | % Aeinf [1, 7]: 0.018-1.6% | % Aelast [1, 7]: 0.018-1.6% | Aeinf [1, 7]: 0.017 to 1.6 mg | Aelast [1, 7]: 0.017 to 1.5 mg | CLR [1, 7]: 0.082 to 5.2 L/h | % Aeinf [1, 8]: 0.611% | % Aelast [1, 8]: 0.61% | Aeinf [1, 8]: 0.636 mg | Aelast [1, 8]: 0.635 mg | CLR [1, 8]: 2.14 L/h | % Aeinf [1, 9]: 0.537% | % Aelast [1, 9]: 0.553% | Aeinf [1, 9]: 0.558 mg | Aelast [1, 9]: 0.576 mg | CLR [1, 9]: 1.49 L/h | % Aeinf [1, 10]: 0.13-1.5% | % Aelast [1, 10]: 0.12-1.6% | Aeinf [1, 10]: 0.13 to 1.6 mg | Aelast [1, 10]: 0.13 to 1.7 mg | CLR [1, 10]: 0.45 to 7.4 L/h | percentage of the dose excreted in urine as metabolite ([1]; patients): 0.6% | AUCinf [2, 11]: 372 ng·h/mL | AUClast [2, 11]: 370 ng·h/mL | Cmax [2, 11]: 344 ng/mL | t1/2 [2, 11]: 43.6 min | tmax [2, 11]: 49.4 min | AUCinf [2, 12]: 369 ng·h/mL | AUClast [2, 12]: 367 ng·h/mL | Cmax [2, 12]: 243 ng/mL | t1/2 [2, 12]: 38.6 min | tmax [2, 12]: 76.2 min | Mean AUCinf of bendamustine relative to that of the metabolite (times higher) ([2]; patients, oral administration): 10.6 times | exposure relative to that of bendamustine ([2]; patients, oral administration): approximately 9% | AUCinf after oral administration as % of AUCinf after intravenous administration ([2]; patients): 86%

O=C(O)CCCc1nc2cc(N(CCCl)CCCl)ccc2[nH]1 [Batch M4, N-desmethylbendamustine]
% Aeinf [1, 13]: 0.081% | % Aelast [1, 13]: 0.086% | Aeinf [1, 13]: 0.071 mg | Aelast [1, 13]: 0.075 mg | CLR [1, 13]: 1.74 L/h | % Aeinf [1, 14]: 0.045% | % Aelast [1, 14]: 0.043% | Aeinf [1, 14]: 0.039 mg | Aelast [1, 14]: 0.038 mg | CLR [1, 14]: 1.66 L/h | % Aeinf [1, 15]: 0.0039-0.17% | % Aelast [1, 15]: 0.0028-0.21% | Aeinf [1, 15]: 0.0034 to 0.15 mg | Aelast [1, 15]: 0.0025 to 0.18 mg | CLR [1, 15]: 0.18 to 5.3 L/h | % Aeinf [1, 16]: 0.109% | % Aelast [1, 16]: 0.113% | Aeinf [1, 16]: 0.105 mg | Aelast [1, 16]: 0.109 mg | CLR [1, 16]: 2.83 L/h | % Aeinf [1, 17]: 0.104% | % Aelast [1, 17]: 0.104% | Aeinf [1, 17]: 0.1 mg | Aelast [1, 17]: 0.1 mg | CLR [1, 17]: 2.24 L/h | % Aeinf [1, 18]: 0.034-0.22% | % Aelast [1, 18]: 0.019-0.21% | Aeinf [1, 18]: 0.033 to 0.21 mg | Aelast [1, 18]: 0.019 to 0.21 mg | CLR [1, 18]: 0.78 to 7.1 L/h | percentage of the dose excreted in urine as metabolite ([1]; patients): 0.1% | AUCinf [2, 19]: 42.5 ng·h/mL | AUClast [2, 19]: 40.8 ng·h/mL | Cmax [2, 19]: 33.6 ng/mL | t1/2 [2, 19]: 32.6 min | tmax [2, 19]: 56.1 min | AUCinf [2, 20]: 44.4 ng·h/mL | AUClast [2, 20]: 42.8 ng·h/mL | Cmax [2, 20]: 26.9 ng/mL | t1/2 [2, 20]: 30.9 min | tmax [2, 20]: 79.5 min | Mean AUCinf of bendamustine relative to that of the metabolite (times higher) ([2]; patients, oral administration): 88 times | exposure relative to that of bendamustine ([2]; patients, oral administration): ~1% | AUCinf after oral administration as % of AUCinf after intravenous administration ([2]; patients): 88%

Cn1c(CCCC(=O)O)nc2cc(N(CCCl)CCCl)ccc21 [bendamustine, 4-[5-[bis(2-chloroethyl)amino]-1-methylbenzimidazo-2-yl]butanoic acid]
% Aeinf [1, 21]: 2.07% | % Aelast [1, 21]: 2.07% | Aeinf [1, 21]: 1.874 mg | Aelast [1, 21]: 1.88 mg | % Aeinf [1, 22]: 1.22% | % Aelast [1, 22]: 1.23% | Aeinf [1, 22]: 1.11 mg | Aelast [1, 22]: 1.12 mg | % Aeinf [1, 23]: 0.27-8.8% | % Aelast [1, 23]: 0.27-8.8% | Aeinf [1, 23]: 0.24 to 8.0 mg | Aelast [1, 23]: 0.24 to 8.0 mg | CLR [1, 23]: 0.06 to 1.4 L/h | % Aeinf [1, 24]: 2.64% | % Aelast [1, 24]: 2.66% | Aeinf [1, 24]: 2.64 mg | Aelast [1, 24]: 2.66 mg | CLR [1, 24]: 0.788 L/h | % Aeinf [1, 25]: 2.23% | % Aelast [1, 25]: 2.23% | Aeinf [1, 25]: 2.23 mg | Aelast [1, 25]: 2.23 mg | % Aeinf [1, 26]: 0.40-5.8% | % Aelast [1, 26]: 0.40-5.9% | Aeinf [1, 26]: 0.40 to 5.8 mg | Aelast [1, 26]: 0.40 to 5.9 mg | CLR [1, 26]: 0.18 to 2.0 L/h | percentage of the dose excreted in urine unchanged ([1]; patients, intravenous): 2.1% | stability of an aqueous solution [3]: significant hydrolytic decomposition | F ([2]; Bendamustine HCl 110.2 mg orally vs 100 mg intravenously, arithmetic mean, n=11): 69.0† % | CL/F ([2]; bendamustine in plasma, Bendamustine HCl 110.2 mg orally, mean, n=12): 31.7 L/h | Mean t1/2 ([2]; patients, intravenous administration): approximately 30 minutes | absolute bioavailability (oral versus intravenous ratio of AUCinf), geometric mean ([2]; patients, oral 110.2 mg LFHC (example 2) vs i.v. 100 mg, 90% CI: 55%, 78%): 66% | tmax ([2]; patients, oral administration): approximately 0.95 hours | tmax, individual values ([2]; patients, oral administration): 15 min and 108 min | Mean t1/2 ([2]; patients, oral intake): approximately 30 minutes | Cmax after oral dosing as % of Cmax after intravenous dosing ([2]; patients, 90% CI: 32%, 54%): 42% | patients with at least 1 adverse event considered related to study drug ([4]; intravenous dose): no patients | patients with treatment-emergent adverse events ([4]; intravenous treatment, 100 mg): 25% | safety and tolerability ([4]; intravenous, single dose 100 mg): safe and well tolerated | deaths during the study ([4]; oral and intravenous): No deaths occurred | patients with at least 1 adverse event considered related to study drug ([4]; oral dose): 29% | patients with treatment-emergent adverse events ([4]; oral treatment, 110.2 mg): 43% | safety and tolerability ([4]; oral, single dose 110.2 mg): safe and well tolerated
